Assay results taken from patent publication US20080044484A1, “Use of polymeric nanoparticles for vaccine delivery” (THE REGENTS OF THE UNIVERSITY OF CALIFORNIA, priority 2004, published 2008).

Test system: T2 cells
Experiment: IFNγ release by CTL (ELISA) after incubation with peptide-loaded T2 cells
Assay type: cell-based, human
Settings: CTL elicited with the corresponding HER2/neu peptide, 20 h, 10^5 CTL/well
Description: In interferon gamma-release assays, 10^5 HER2/neu-specific CTL were co-incubated with 10^5 peptide-loaded T2 cells for 20 hours at 37° C. The concentrations of human interferon gamma in co-cultured supernatants were then determined by ELISA.

| Substance | Release of IFNγ by CTL, T2 cells loaded with the peptide (Day 1 after peptide loading) [pg/mL] | Release of IFNγ by CTL, T2 cells loaded with the peptide (Day 3 after peptide loading) [pg/mL] | Release of IFNγ by CTL, T2 cells loaded with the peptide (Day 5 after peptide loading) [pg/mL] | Release of IFNγ by CTL, T2 cells loaded with the peptide (Day 8 after peptide loading) [pg/mL] |
| --- | --- | --- | --- | --- |
| CLTSTVQLV MRYMILGLLALAAVCSA (CLTSTVQLVMRYMILGLLALAAVCSA) [HER789-797-ES] | 58 | 78 | 69 | 98 |
| CLTSTVQLV MTNKCLLQIALLLCFSTTA (CLTSTVQLVMTNKCLLQIALLLCFSTTA) [HER789-797-IS] | 69 | 78 | 87 | 59 |
| HLYQGCQVV MRYMILGLLALAAVCSA (HLYQGCQVVMRYMILGLLALAAVCSA) [HER48-56-ES] | 418 | 218 | 99 | 101 |
| HLYQGCQVV MTNKCLLQIALLLCFSTTALS (HLYQGCQVVMTNKCLLQIALLLCFSTTALS) [HER48-56-IS] | 288 | 148 | 155 | 121 |
| M A CLTSTVQLV A A A A A G (MACLTSTVQLVAAAAAG) [HER789-797-IN-AF] | 296 | 327 | 178 | 117 |
| M R CLTSTVQLV A A V C S A (MRCLTSTVQLVAAVCSA) [HER789-797-IN-ES] | 246 | 312 | 121 | 107 |
| MR HLYQGCQVV AAVCSA (MRHLYQGCQVVAAVCSA) [HER48-56-IN-ES] | 3368 | 1349 | 988 | 228 |
| MRYMILGLLALAAVCSA CLTSTVQLV (MRYMILGLLALAAVCSACLTSTVQLV) [ES-HER789-797] | 1824 | 526 | 168 | 110 |
| MRYMILGLLALAAVCSA HLYQGCQVV (MRYMILGLLALAAVCSAHLYQGCQVV) [ES-HER48-56] | 2894 | 1876 | 953 | 589 |
| MTNKCLLQIALLLCFSTTALS CLTSTVQLV (MTNKCLLQIALLLCFSTTALSCLTSTVQLV) [IS-HER789-797] | 1717 | 315 | 125 | 104 |
| MTNKCLLQIALLLCFSTTALS HLYQGCQVV (MTNKCLLQIALLLCFSTTALSHLYQGCQVV) [IS-HER48-56] | 3268 | 1264 | 943 | 614 |
